The text below walks through data of patent US7696408B2, “Method to enhance Agrobacterium-mediated transformation of plants” (Regents of the University of Minnesota, priority 1999, dated 2010).

For test [1], the system named is fava bean explants. The test is described as follows: Enzymatic browning of fava bean explants. To be noted: cysteine (e.g., 400-1000 mg/l) in solid co-cultivation medium. The format is cell-based.
The test system of test [2] is soybean cot-node explants. The test is described as follows: De novo shoot production on explants at four weeks on shoot induction media. The format is cell-based, Glycine max. The conditions noted are these: Experiment #4, Bert.
The test system of test [3] is soybean cot-node explants. Kind of test: GUS transient expression on soybean cot-node explants after 5-day co-cultivation with Agrobacterium (T-DNA delivery). The test is classed as cell-based, Glycine max.
For test [4], the system named is soybean cot-node explants. Described as above. The test is classed as cell-based, Glycine max. An excerpt: For each seedling, the roots and the majority of the hypocotyl were removed approximately 3-5 mm below the cotyledonary node by cutting the hypocotyl with a scalpel (Hinchee et al., 1998). The two cotyledons were then separated by cutting vertically through the hypocotyl region resulting in two explants. The epicotyl was subsequently removed on both explants, including all primary leaves and shoot meristems, and both the axillary bud and cotyledonary node were wounded by cutting about 10 times with a scalpel blade perpendicular to the hypocotyl. After all explants in a set were wounded (about 50), they were placed in a 25×100 mm petri plate containing 50 ml co-culture suspension for 30 minutes or inoculated into the 25 ml co-cultivation/Agrobacterium suspension for 30 minutes. The explants were then cultured on an agar-solidified co-culture media (0.5%) either without the addition of a test agent (e.g., cysteine) in 15×100 mm petri plates on top a sterile Whatman®#1 filter paper; five explants per plate with adaxial side down. Five plates were stacked together and wrapped in Parafilm®M then incubated at either 22° C. or 25° C. for 5 days in the dark.
After 5 days, the explants were washed in a liquid shoot induction media (B5 salts, MSIII iron stock, 3% sucrose, 3 mM MES, and filter sterilized B5 vitamins, 1.67 mg/l BAP, 100 mg/l cefotaxime, and 500 mg/l ticarcillin; pH 5.6) to remove excess Agrobacterium. Seven to ten explants from each cysteine level were washed in liquid shoot induction medium and placed in GUS histochemical stain (Jefferson et al., 1987). These explants were scored for GUS transient expression. Five to ten explants from each group were imbedded into a single 25×100 mm petri plate with solid shoot induction media (0.8% agar and agent, e.g., 400 mg/l cysteine) containing PPT concentrations of 1.33 mg/l, 3.33 mg/l, or 5.0 mg/l for selection. The plates were then incubated in a growth chamber with a fluctuating temperature between 18° C.-30° C. under a 18 hours light/6 hours dark cycle at 90-150 μE/m^2s.
The level of infection was scored using the GUS gene as a phenotypic marker immediately after co-culture and again after 4 weeks in shoot induction media. As it can be difficult to score the explants after co-cultivation due to the variation among explants and, in some cases, a complete staining of the target tissues, 6 categories were formed to assess the success of infection: • 4) None=There were no GUS positive sectors on any of the explants; • 5) Very low=Not all explants have GUS positive sectors, however, some have discrete foci usually seen on the hypocotyl or cot-node region. • 6) Low=More than ¾ the explants have GUS positive sectors in discrete foci on the hypocotyl and the cot-node region, but the foci are not numerous (<20). • 7) Medium=More than ½ the explants have significant GUS positive sectors at the cot-node region and hypocotyl, some seen as long lines of cells or larger sectors. • 8) Good=More than ¾ the explants have significant staining at the hypocotyl, the entire cot-node region, and on the cotyledons. […] Almost all explants have regions that are completely GUS positive. To reduce bias, samples were chosen at random and the level of infection scored before noting the treatment conditions. Samples that were between two categories are marked accordingly; those samples that resembled one category more than another were marked with a capital “X” and the other with a lowercase “x”.
Wounded soybean cot-node explants prepared from the cultivar ‘Bert’ were co-cultivated with Agrobacterium on solid co-cultivation medium containing various levels of cysteine for 5 days.
The source holds these as a separate data set.

“Also recorded” adds a separate entry of the source.

Regarding `N[C@@H](CS)C(=O)O` [L-cysteine], the “enzymatic browning of fava bean explants” value in test [1] was “decreased”. Besides, the “explants that developed de novo shoots” value in test [2] (0S,400L) came out at 75%; in test [2] (400L,0S (mg/l cysteine liquid, solid), control 0L,0S 76%) it was 47%; in test [2] (400L,400S), 68%. The “infection in genotypes that respond poorly to the cot-node method” value in test [3] (400 mg/l cysteine, MN1401, Granite, Lambert, MN1801, MN0301) is “significant increase in infection”. The “GUS+ foci on 5 day explants, cysteine only in liquid media” value in test [3] (cysteine added only to liquid Agrobacterium culture (YEP) or liquid co-cultivation medium) is “did not increase; also recorded: no increases detected”. Besides, the “infection, cysteine in solid co-culture media (experiments #4-#6)” value in test [4] (0 or 400 mg/l cysteine in liquid and solid co-culture media) is given as “increased infection”. Moreover, the “average frequency of explants containing a GUS+ focus at the cot-node” value in test [4] (300 to 1000 mg/l cysteine in solid co-cultivation medium, Bert, AGL1 pBSF16, 5 days, 30% with no cysteine) is roughly 100%. Moreover, in test [4] (400 and 1000 mg/l cysteine, α=0.05 (P<0.001)), the “GUS staining scores, difference from 0 mg/l cysteine” value is given as “significantly differ”. In test [4] (400 and 1000 mg/l cysteine, α=0.05 (P<0.001), FIG. 1D), the “frequency of explants with at least one GUS+ focus, difference from 0 mg/l cysteine” value was “significantly differ”. The “frequency of explants with GUS+ foci at the cot-node, all genotypes” value in test [4] (5 days co-cultivation, MN0901, A3237, MN1801, MN0301, Granite, MN1401, MN1301, Lambert) is “increase”. In addition, the “GUS+ staining after co-cultivation” value in test [4] (Bert, LBA4404 pTOK233, agent in solid co-cultivation media, concentrations of Table 1, 5-day incubation) is “increases”. Moreover, the “infection (% of explants) at the entire cot-node region” value in test [4] (after 5-day incubation, cysteine containing solid co-culture media (100-400 mg/l L-cysteine), genotypes Bert, MN1301, MN0901, 50% of control explants) was 80-100%. In addition, in test [4] (amended to solid co-cultivation media), the “GUS+ foci at the 5-day interval” value is listed as “increase”. The “number of GUS+ foci per explant five days post-inoculation” value in test [4] (cysteine 400-1000 mg/l, eight independent experiments) was “increase”. In test [4] (cysteine during co-cultivation vs control, 5 days), the “frequency of GUS positive sectors/foci with strain LBA4404 pTOK233” value is on record as “exceed in the frequency of GUS positive sectors over the control explants; also recorded: greater”. Further, in test [4] (cysteine, especially 300 and 400 mg/l, MN1301, MN0901, Bert), the “GUS positive sectors after co-cultivation (experiments #1-#3)” value is listed as “extensive GUS positive sectors”. The “frequency of explants with at least one GUS+ focus at the cot-node” value in test [4] (five days post-inoculation, cysteine 400-1000 mg/l, eight independent experiments, 30% without) is listed as 100%.
